Measurements taken from patent publication US20220193301A1, “CELL SUSPENSION AND USE THEREOF” (AVITA Medical, Inc., priority 2012, published 2022).

Tested on: Primary Epidermal Keratinocytes (PEK), Normal, Human, Adult
Test: In vitro Scratch Assay of keratinocytes (with and without mitomycin c)
Assay type: cell-based
Details: media/control group, no hydrogel
Excerpt: 1. Maintain stock cultures of Primary Epidermal Keratinocytes (PEK), Normal, Human, Adult cells in Dermal Cell Basal Medium supplemented with Keratinocyte Growth Kit and Gentamicin-Amphotericin B Solution (Complete Medium). Subculture the stock cultures of cells to 2.5×10^4 cells/ml (estimate) and re-feed with complete medium every 2 days or when a density of near confluence is reached. 2. To each well of a 24 well plate add appropriate test substances. Row A, Columns 1-3: blank, no cells, medium only. Row B, Columns 1-3: baseline, cells only, no coating. Row C-D, Columns 1-3 and Rows A-D, Columns 4-6: test substances at determined previously, in a serial dilution series as necessary. 3. Harvest cells and wash the PEK cells in Media by centrifugation at 150×g for 3 to5 minutes. 4. Determine cell number and viability (by trypan blue exclusion), and suspend the cells to a final concentration of 5×10^4 cells/ml in Media. 5. Dispense 600 μl of the cell suspension (30,000 cells) into all wells of the plate prepared in Step 2. 6. […]
In vitro Scratch Assay was performed according to the above protocol. […] In vitro re-epithelialization was documented by photography, and the amount of migration was manually quantified by computer-assisted image analysis. The data was expressed as a percentage of the area of the scratch filled by keratinocytes (FIG. 7). […]

## CO[C@@]12[C@H](COC(N)=O)C3=C(C(=O)C(C)=C(N)C3=O)N1C[C@@H]1N[C@@H]12 [MMC, mitomycin c]
  healing of the scratch, MMC+ cells compared to MMC− cells: delayed healing
